In patent publication US9770438B2, “Clonidine formulation in a polyorthoester carrier” (Medtronic, Inc., priority 2008, dated 2017):

Key:
[1] = test system: Rat Chronic Constriction Injury Model (Bennett Model) of neuropathic pain; details: subcutaneously 0.02 mg/kg/day; compared to unloaded polyorthoester depot (POE Control); days 8-64; FIG. 4
Excerpt: (§1) A 2-month chronic constriction injury (CCI) model of neuropathic pain was used to evaluate a formulation of clonidine encapsulated in a POE polymer, a POE control polymer and clonidine given subcutaneously (SC).
(§2) The inventors evaluated the efficacy of a five month Clonidine/Polyorthoester Drug Depot in the Rat Chronic Constriction Injury Model. The animal model was the Bennett Model (Wistar rat). The purpose: to determine whether a five month polyorthoester clonidine-eluting depot can improve pain associated behavioral responses in a rat model of neuropathic pain.
(§3) Experimental Design: Four loose chromic gut ligatures, 1 mm apart, were tied around the common sciatic nerve at mid-thigh. Each animal received treatment of test or a controlled article according to the dosing described in Table 2.
(§4) The inventors have conducted the present study for a period of 64 days and have employed the following two tests: (1) the Hargreaves test; and (2) the von Frey test. The Hargreaves Tests of Thermal Hyperalgesia were conducted on days 7, 14, 21, 28, 35, 42, 49, 56 and 63. The von Frey monofilament test of mechanical allodynia (performed the day following thermal testing) were conducted on days 8, 15, 22, 29, 36, 43, 50, 57 and 64.

[2] = test system: Rat Chronic Constriction Injury Model (Bennett Model) of neuropathic pain; details: subcutaneously 0.02 mg/kg/day; compared to unloaded polyorthoester depot (POE Control); days 7-63; FIG. 3
Excerpt: as §1, §2, §3, §4

## Clc1cccc(Cl)c1N=C1NCCN1 [clonidine, 2,6-dichloro-N-2-imidazolidinyldenebenzenamine]
[1]
  pain behavioral response (percentage of baseline) for mechanical allodynia: reduced the behavioral response
[2]
  pain behavioral response (percentage of baseline) for thermal hyperalgesia: consistently reduced the behavioral response
